# Data: patent publication US5719151A, “Substituted benzene compounds” (priority 1990, dated 1998)
# Read-outs that look alike come from different tables or passages of the source.
# Legend:
# [1] = target: poly(ADP-ribose)polymerase (Homo sapiens, UniProt P09874); experiment: Determination of inhibitory effect on poly(ADP-ribose)polymerase (enzyme activity, Ki, Km); format: biochemical
# Method: The enzyme activity was assayed by standard procedures (Murray, B. et al., Mutation Research (1986) 165:191-198). This reference also describes the estimation of the Km (Michaelis Constant) values. The estimation of the Ki (inhibitory constant) values was performed by calculating the Km value in the presence or absence of known concentrations of the enzyme inhibitor. Standard biochemical calculations were then used to calculate the Ki value. The smaller K1 values indicate stronger inhibition. The degree of enzyme inhibition shown in the Table was estimated by measuring the enzyme activity in the presence and absence of the indicated concentrations of inhibitor.
# [2] = system: Trypanosoma brucei rhodesiense; experiment: Growth of Trypanosoma brucei rhodesiense in axenic culture (growth inhibition); format: cell-based
# Method: (§1) 1. TRYPANOSOMES: Stabilates of two clones, GUP 2889 and GUP 2814 were used.
# Prior to propagation in vitro cell free culture conditions the parasites from stabilates were expanded in CD1 (8-9 week old) female mice. Infected mouse blood obtained by cardiac puncture in EMEM* with 20 U/ml heparin was used for the preparation of blood smears for immunofluorescence analysis.
# (§2) Antibody mediated lysis of a specific VAT of bloodstream form trypanosomes was performed by incubating an appropriate aliquot of a recently prepared trypanosome suspension at room temperature for 1 hour, in appropriately diluted specific antibody and guinea pig complement. The trypanosomes were observed and counted with inverted phase-contrast microscopy at a magnification of 150× to check for viability and to observe lysed trypanosomes, which appeared stumpy and vacuolated.
# (§3) Cultures were initiated with aliquots of the above prepared trypanosome suspension. Duplicate T25 flasks, with 10 ml of medium were prepared for each experimental parameter examined. In each experiment the trypanosome density was determined at the initiation of the culture and at the end of the axenic culture period (usually after 18-24 hours) using a Neubaurer haemocytometer.
# (§4) The instantaneous rate of switching/cell/generation, σi, has been calculated. These values of σ are estimates of the per capita rate for switching to minor VATs. However, these estimates have been made in populations manipulated to consist of a major VAT, the prevalence of which is much higher than that of minor VATs; switching from minor to major VATs has therefore been assumed to be negligible, as has interswitching between minor VATs. Growth rates, r, have been expressed as population doubling times Td, where Td=loge2/r. Switching rates values are presented in the tables as finite, of, rate estimates.
# Two clones of Trypanosoma brucei rhodesiense, GUP 2889 and […] were initiated in culture with viable trypanosomes after in vitro trypanolysis of heterotype VAT 1.22 with GUPM 27.1 monoclonal antibody. Viable populations of these trypanosomes were incubated with various concentrations of the poly(ADP-Ribose)polymerase inhibitors. The effect of each concentration of inhibitor was tested in duplicate in T25 culture flasks set up for the axenic culture inhibition experiments. Growth was monitored after 24 hours of incubation at 37° C. in 4-5% CO2 in air. Relative growth inhibition and frequency of antigenic switching of were calculated.
# In this assay a continuously growing bloodstream form trypanosome population was incubated in serial inhibitor dilutions in T25 culture flasks using an inoculum of 2×10^4 ·1×10^5 trypanosomes per ml. After an incubation period of 24-48 hours in axenic culture at 37° C. in a 4-5% CO2 incubator, trypanosomes were counted using a haemocytometer and growth inhibition was determined based on the number of generations (kt) of inhibitor treated cultures compared to controls. […] Growth is reduced by up to 17% when 3-N-formylluminol(3-N-FL) is present in the concentration range of 50-400 μM, Table 7.
# [3] = system: Trypanosoma brucei rhodesiense (GUP 2814); experiment: Antigenic switching in Trypanosoma brucei rhodesiense (GUP 2814) in axenic culture, ILTat 1.63 to ILTat 1.22; format: cell-based
# Method: as §1
# Specific rabbit antisera and ascites fluid against specific Variable Antigen Types were used for trypanolysis and immunofluorescence at the appropriate dilutions.
# as §2, §3
# The prevalences of VATs in each cultures population were determined using immunofluorescence as follows: contents of one of the duplicate flasks (or both) were transferred to a universal bottle, and the trypanosomes were sedimented by centrifugation at 3,000 rpm at room temperature in a bench-top MSE centrifuge. The trypanosomes were resuspended in 10 μl of 20%(v/v) FCS supplemented EMEM* medium. Samples of this suspension were applied as smears to clean microscope slides coated with 0.1% poly-L-Lysine for immunofluorescence (IF) analysis for the frequency of specific VATs. Prevalence estimates of VATs were based on counts of more than 1000 labeled trypanosomes per flask.
# Indirect immunofluorescence on acetone-fixed trypanosomes on slides was performed essentially according to the method of van Meirvenne et al., (Ann. Soc. Belge Med. Trop. (1975) 55: 1-23), using appropriately diluted rabbit antiserum or undiluted monoclonal lantibodies derived from hybridoma culture supernatants. Trypanosomes were visualized with fluorescein isothiocyanate(FITC)-labeled conjugated anti rabbit-FITC antibodies (Sigma:No.F-0382) for VAT 1.22 and 1.3, and with anti-mouse-FITC (Sigma:No.F-0257) for VATs 1.64c, 1.63a and 1.61. These secondary antibodies were diluted in PBS (pH8.0) and also contained Evans Blue (1:10,000 w/v) and Ethidium Bromide (5 μg/ml) as a counterstain.
# Estimates of the prevalence of particular trypanosome VATs were based on counts of at least 200 trypanosomes, and at least 1000 trypanosomes were counted if the frequency of positive organisms were very low.
# The rate of switching was estimated essentially as described by Turner and Barry (Parasitology (1989) 99: 67-75). Briefly, the size of the trypanosome population expressing aminor VAT was calculated at the time points […] as Nt1 and Nt2 respectively, from the mean total population density and from the prevalence of that VAT in the population.
# as §4
# Two clones of Trypanosoma brucei rhodesiense, GUP 2889 and […] were initiated in culture with viable trypanosomes after in vitro trypanolysis of heterotype VAT 1.22 with GUPM 27.1 monoclonal antibody. Viable populations of these trypanosomes were incubated with various concentrations of the poly(ADP-Ribose)polymerase inhibitors. […]
# Sequence of poly(ADP-ribose)polymerase (P09874 whole entry): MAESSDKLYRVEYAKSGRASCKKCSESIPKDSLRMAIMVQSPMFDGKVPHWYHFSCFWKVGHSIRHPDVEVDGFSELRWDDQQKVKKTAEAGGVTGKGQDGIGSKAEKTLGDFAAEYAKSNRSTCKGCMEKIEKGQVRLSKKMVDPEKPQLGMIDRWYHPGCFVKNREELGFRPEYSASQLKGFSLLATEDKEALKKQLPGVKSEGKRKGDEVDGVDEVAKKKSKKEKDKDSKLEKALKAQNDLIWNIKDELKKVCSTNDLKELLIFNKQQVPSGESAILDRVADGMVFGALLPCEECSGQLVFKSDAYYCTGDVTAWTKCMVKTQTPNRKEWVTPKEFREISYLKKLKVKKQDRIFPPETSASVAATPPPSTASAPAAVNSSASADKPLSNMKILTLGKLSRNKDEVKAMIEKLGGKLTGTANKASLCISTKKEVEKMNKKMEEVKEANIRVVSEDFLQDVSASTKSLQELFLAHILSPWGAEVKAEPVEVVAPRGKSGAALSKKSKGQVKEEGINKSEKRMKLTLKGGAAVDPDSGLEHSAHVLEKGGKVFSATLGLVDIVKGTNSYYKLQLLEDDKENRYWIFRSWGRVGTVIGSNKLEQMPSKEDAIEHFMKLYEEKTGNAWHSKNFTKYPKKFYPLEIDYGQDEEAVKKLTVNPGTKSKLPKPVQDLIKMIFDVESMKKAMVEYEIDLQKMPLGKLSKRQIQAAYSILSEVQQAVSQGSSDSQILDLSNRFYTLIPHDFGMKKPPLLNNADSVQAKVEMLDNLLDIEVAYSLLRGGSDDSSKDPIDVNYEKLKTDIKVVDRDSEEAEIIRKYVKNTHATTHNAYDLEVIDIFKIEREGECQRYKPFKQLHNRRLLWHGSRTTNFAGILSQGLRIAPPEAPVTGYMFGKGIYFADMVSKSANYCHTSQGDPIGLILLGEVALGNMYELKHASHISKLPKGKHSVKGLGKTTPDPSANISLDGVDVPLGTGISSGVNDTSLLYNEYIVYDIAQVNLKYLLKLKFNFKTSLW
smiles,measurement,setting,value
"NC(=O)c1cccc(NC=O)c1 [Compound 1, 3-formylaminobenzamide]",inhibition at 5 µM,"[1]; 5.0 μM, read-out: Inhibitor Activity (%)",66%
same,Ki,"[1]; poly(ADP-ribose)polymerase, read-out: Ki (Inhibition Constant)",1610 ± 150 nM
same,reduction in growth rate,[2]; 0.5 to 2.0 mM,7%
same,kt (generation number),"[2]; GUP 2814, DHS/EMEM, 1.0 mM, control 2.44",2.29 doublings
same,kt (generation number),"[2]; GUP 2814, ES/EMEM (first experiment), 1.0 mM, control 2.02",1.56 doublings
same,kt (generation number),"[2]; GUP 2814, ES/EMEM (second experiment), 1.0 mM, control 2.36",2.14 doublings
same,kt (generation number),"[2]; GUP 2814, ES/EMEM, 0.5 mM, control 1.95",2.09 doublings
same,kt (generation number),"[2]; GUP 2814, FCS/EMEM, 1.0 mM, control 2.143",1.92 doublings
same,activity at 500 µM,"[2]; Trypanosoma brucei, RHODESIENSE, 0.5 mM, n = 6, control 1.00, read-out: Relative Growth Rate (S.D., n)",105 ± 13%
same,activity at 1000 µM,"[2]; Trypanosoma brucei, RHODESIENSE, 1.0 mM, n = 11, control 1.00, read-out: Relative Growth Rate (S.D., n)",103 ± 23%
same,activity at 2000 µM,"[2]; Trypanosoma brucei, RHODESIENSE, 2.0 mM, n = 6, control 1.00, read-out: Relative Growth Rate (S.D., n)",93 ± 22%
same,activity at 1000 µM,"[2]; Trypanosoma brucei, RHODESIENSE, GUP 2814, DHS/EMEM, 1.0 mM, control 100, read-out: Relative Growth",93.9%
same,activity at 1000 µM,"[2]; Trypanosoma brucei, RHODESIENSE, GUP 2814, ES/EMEM (first experiment), 1.0 mM, control 100, read-out: Relative Growth",77.2%
same,activity at 1000 µM,"[2]; Trypanosoma brucei, RHODESIENSE, GUP 2814, ES/EMEM (second experiment), 1.0 mM, control 100, read-out: Relative Growth",90.8%
same,activity at 500 µM,"[2]; Trypanosoma brucei, RHODESIENSE, GUP 2814, ES/EMEM, 0.5 mM, control 100, read-out: Relative Growth",107%
same,activity at 1000 µM,"[2]; Trypanosoma brucei, RHODESIENSE, GUP 2814, FCS/EMEM, 1.0 mM, control 100, read-out: Relative Growth",89.6%
same,"switching frequency, from ILTat 1.63 to 1.22","[3]; 1 mM, Horse Serum (Bristol), two of three experiments",reproducible reduction of switching frequency
same,σf (finite switch rate per trypanosome per generation),"[3]; DHS/EMEM, 1.0 mM, control 210.8",117.0 x10^-2
same,σf (finite switch rate per trypanosome per generation),"[3]; ES/EMEM (first experiment), 1.0 mM, control 5.3",2.26 x10^-2
same,σf (finite switch rate per trypanosome per generation),"[3]; ES/EMEM (second experiment), 1.0 mM, control 2.17",0.94 x10^-2
same,σf (finite switch rate per trypanosome per generation),"[3]; ES/EMEM, 0.5 mM, control 13.65",0.95 x10^-2
same,σf (finite switch rate per trypanosome per generation),"[3]; FCS/EMEM, 1.0 mM, control 0.46",0.72 x10^-2
same,activity at 1000 µM,"[3]; Trypanosoma brucei, RHODESIENSE, read-out: RAS (relative antigenic switching), DHS/EMEM, 1.0 mM, control 100",55.5%
same,activity at 1000 µM,"[3]; Trypanosoma brucei, RHODESIENSE, read-out: RAS (relative antigenic switching), ES/EMEM (first experiment), 1.0 mM, control 100",42.6%
same,activity at 1000 µM,"[3]; Trypanosoma brucei, RHODESIENSE, read-out: RAS (relative antigenic switching), ES/EMEM (second experiment), 1.0 mM, control 100",43.5%
same,activity at 500 µM,"[3]; Trypanosoma brucei, RHODESIENSE, read-out: RAS (relative antigenic switching), ES/EMEM, 0.5 mM, control 100",7%
same,activity at 1000 µM,"[3]; Trypanosoma brucei, RHODESIENSE, read-out: RAS (relative antigenic switching), FCS/EMEM, 1.0 mM, control 100",136%
